Measurements from PMC3019153 (PLoS ONE, 2011).
Values joined by “and” are separate entries in the source; they are usually repeats but may differ in a detail not shown here. Equal values may be shown once. “Also recorded” adds a separate entry of the source.

What was measured:
[1] = molecular target: T1, mycobacterial dephosphocoenzyme A kinase K14A mutant (Mycobacterium tuberculosis, UniProt P9WPA3, K14A); assay type: biochemical
[2] = molecular target: mycobacterial dephosphocoenzyme A kinase G8A mutant (Mycobacterium tuberculosis, UniProt P9WPA3, G8A); assay type: biochemical
[3] = molecular target: mycobacterial dephosphocoenzyme A kinase R140A mutant (Mycobacterium tuberculosis, UniProt P9WPA3, R140A); assay type: biochemical
[4] = molecular target: T2, mycobacterial dephosphocoenzyme A kinase D32A mutant (Mycobacterium tuberculosis, UniProt P9WPA3, D32A); assay type: biochemical
[5] = molecular target: T3, mycobacterial dephosphocoenzyme A kinase D32E mutant (Mycobacterium tuberculosis, UniProt P9WPA3, D32E); assay type: biochemical
[6] = molecular target: mycobacterial dephosphocoenzyme A kinase L114A mutant (Mycobacterium tuberculosis, UniProt P9WPA3, L114A); assay type: biochemical
[7] = molecular target: T4, mycobacterial dephosphocoenzyme A kinase R140K mutant (Mycobacterium tuberculosis, UniProt P9WPA3, R140K); assay type: binding
[8] = molecular target: T5, wild type mycobacterial dephosphocoenzyme A kinase (CoaE) (Mycobacterium tuberculosis, UniProt P9WPA3); assay type: biochemical
T5 sequence (P9WPA3 1-407): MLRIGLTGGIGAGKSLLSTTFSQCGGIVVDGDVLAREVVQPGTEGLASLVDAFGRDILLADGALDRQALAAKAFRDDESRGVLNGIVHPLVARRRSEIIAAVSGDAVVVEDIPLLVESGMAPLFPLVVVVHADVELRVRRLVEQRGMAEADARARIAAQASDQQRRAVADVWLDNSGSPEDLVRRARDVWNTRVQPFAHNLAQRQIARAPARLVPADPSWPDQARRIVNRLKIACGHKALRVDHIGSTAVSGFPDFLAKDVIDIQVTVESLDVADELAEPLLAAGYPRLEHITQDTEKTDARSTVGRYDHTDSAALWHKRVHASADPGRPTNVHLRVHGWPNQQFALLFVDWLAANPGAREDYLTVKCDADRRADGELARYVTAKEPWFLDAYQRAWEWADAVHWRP

[9] = molecular target: T4, mycobacterial dephosphocoenzyme A kinase R140K mutant; assay type: biochemical
[10] = molecular target: T5, wild type mycobacterial dephosphocoenzyme A kinase (CoaE); assay type: binding; conditions: pH 7.8
[11] = molecular target: T1, mycobacterial dephosphocoenzyme A kinase K14A mutant; assay type: binding; conditions: pH 7.8
[12] = molecular target: T3, mycobacterial dephosphocoenzyme A kinase D32E mutant; assay type: binding; conditions: pH 7.8
[13] = molecular target: T2, mycobacterial dephosphocoenzyme A kinase D32A mutant; assay type: binding; conditions: pH 7.8

Compound	Kcat [1]	Km [1]	Kcat [2]	Km [2]	Kcat [3]	Kcat [4]	Kcat [5]	Km [5]	increase in the affinity of the mutant enzyme [5]	Kcat [6]	Km [6]	ΔH [11]	ΔS [11]	also measured
Nc1ncnc2c1ncn2[C@@H]1O[C@H](COP(=O)(O)OP(=O)(O)OP(=O)(O)O)[C@@H](O)[C@H]1O [ATP]	2.34 and 2.34 min^−1	86.7 µM	0.04272 s⁻¹	59.8 µM	nr	0.014 s⁻¹	0.0666 s⁻¹	34.5 µM	60.58%	0.0192 s⁻¹	63.9 µM			increase in the Km [1]: 50%; reduction in the Kcat [1]: 19%; Km [3]: nr; Kcat, % of the WT [4]: about 28%; binding to ATP (in words) [7]: poor binding; also recorded: very poor binding
CC(C)(COP(=O)(O)OP(=O)(O)OC[C@H]1O[C@@H](n2cnc3c(N)ncnc32)[C@H](O)[C@@H]1O)[C@@H](O)C(=O)NCCC(=O)NCCS [DCoA, dephosphocoenzyme A]	1.532 min⁻¹	75.8 µM	0.02572 s⁻¹	37.2 µM	nr	0.00171 s⁻¹	0.0327 s⁻¹	21.7 µM	62.17%	0.0569 s⁻¹	80.9 µM	-3576 calM^−1 and −3576(±115.7) calM^−1	5.73(±0.37) calM^−1K^−1	Kcat [8]: 0.0257 s⁻¹ and 0.0293 s⁻¹; Kcat [9]: 0.00755 s⁻¹; Kcat, % of the WT [9]: ~15%; Km [9]: 181 µM; Km [4]: 501 µM; increase in the Km [4]: 15 fold; ΔH [10]: −3719((±201.5) calM^−1; ΔS [10]: 6.32(±0.34) calM^−1K^−1; Ka [11]: 1.32(±1.45E3) M^−1*10^−4; binding of the leading substrate (in words) [7]: reasonably well; Ka ([7]; pH 7.8): 2.17(±1.23E3) M^−1*10^−4; ΔH ([7]; pH 7.8): −7723 calM^−1; ΔS ([7]; pH 7.8): −6.5((±0.49) calM^−1K^−1; Ka [12]: 2.12 (±2.61E3) M^−1*10^−4; ΔH [12]: −4355(±138.7) calM^−1; ΔS [12]: 4.94(±0.42) calM^−1K^−1; ΔH [13]: −1559(±72.9) calM^−1; ΔS [13]: −35.1(±0.98) calM^−1K^−1
Nc1ncnc2c1ncn2[C@@H]1O[C@H](CO[P@](=O)(O)O[P@](=O)(O)O[P@@](=O)(O)S)[C@@H](O)[C@H]1O [NHATP, ATP-γS]												−1826 calM^−1 and −1826(±195.7) calM^−1	13.8 calM^−1K^−1 and 13.8(±0.59) calM^−1K^−1	N (binding) ([7]; pH 7.8): No binding
